Here are results for ten compounds from ChEMBL document CHEMBL1201862, “PubChem BioAssay data set” (2004).

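Cells were grown in 96-well plates and exposed to each compound for 48 hours at five concentrations; endpoints were interpolated linearly between bracketing concentrations, or set to the highest concentration if not reached. GI50 = concentration required for 50% inhibition of growth.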 Calls of active or inactive are those of the source. No stated cut-off is given here; in the data, active = GI50 up to about 1.1 µM and inactive = higher.

Among the test systems are A549; ACHN; CCRF-CEM; COLO 205; HCT-116; HCT-15; KM12; Malme-3M; NCI-H23; NCI-H460; NCI-H522; SK-MEL-2; SK-OV-3; TK-10; UACC-62; A498; SK-MEL-5.
Test in all cases: growth of human tumour cells (NCI), 48 h

Take `CC1=C(C(=O)NNS(=O)(=O)c2ccc(C)cc2)CC(C(=O)NNS(=O)(=O)c2ccc(C)cc2)=C(C)N1`: the GI50 with A549 is > 100 µM (inactive); with ACHN, 84.9 µM (inactive); with CCRF-CEM, > 10 µM (inactive); with COLO 205, > 100 µM (inactive); in the experiment with HCT-116 it was > 100 µM (inactive); in the experiment with HCT-15 it was greater than 100 µM. Besides, the GI50 with KM12 is > 100 µM (inactive); in the experiment on Malme-3M it was > 100 µM (inactive); in the experiment on NCI-H23 it was > 100 µM (inactive); in the experiment with NCI-H460, > 100 µM (inactive); with NCI-H522, 66.5 µM (inactive); with SK-MEL-2, > 100 µM (inactive). Besides, the results for the GI50 in the experiment on SK-OV-3, with TK-10 and with UACC-62 were > 100 µM (inactive), 56.4 µM (inactive) and 14.3 µM (inactive), respectively.
As to `COc1ccc(N2C(=O)C3c4[nH]c5ccccc5c4C4CC(C)CC(C)C4C3C2=O)cc1` (stereo not given), the GI50 in the experiment on A498, in the experiment on A549, in the experiment with ACHN, with CCRF-CEM, in the experiment on COLO 205 and in the experiment on HCT-116 was > 100 µM (inactive) in each case. Further, the GI50 in the experiment with HCT-15 is greater than 100 µM; in the experiment with Malme-3M, > 100 µM (inactive); in the experiment with NCI-H23, > 100 µM (inactive); with NCI-H522 it was > 100 µM (inactive); in the experiment with SK-MEL-5 it was > 100 µM (inactive); in the experiment with SK-OV-3, > 100 µM (inactive). Besides, the GI50 in the experiment on UACC-62 is > 100 µM (inactive).
Regarding `O=c1c(Cc2ccccc2)c(O)cc2n1CCC2`, the GI50 was > 100 µM (inactive) in the experiment with A498; > 100 µM (inactive) with A549; > 100 µM (inactive) with ACHN; 41.5 µM (inactive) in the experiment on CCRF-CEM; > 100 µM (inactive) with COLO 205; > 100 µM (inactive) in the experiment with HCT-116. Besides, the GI50 in the experiment on HCT-15 was greater than 100 µM; with KM12, > 100 µM (inactive); with Malme-3M it was > 100 µM (inactive); with NCI-H23, > 100 µM (inactive); in the experiment with NCI-H460 it was > 100 µM (inactive); in the experiment with NCI-H522, > 100 µM (inactive). The GI50 in the experiment with SK-MEL-5, with SK-OV-3, in the experiment with TK-10 and in the experiment on UACC-62 was > 100 µM (inactive) in each case.
Regarding `CC1=C(C(=O)Nc2ccccc2C)C(c2ccc(Cl)cc2)C(C(=O)Nc2ccccc2C)=C(C)N1`, the GI50 in the experiment with A549 is > 100 µM (inactive); in the experiment with ACHN, > 100 µM (inactive); in the experiment on CCRF-CEM it was > 100 µM (inactive); in the experiment with COLO 205, > 100 µM (inactive); in the experiment on HCT-116 it was > 100 µM (inactive); in the experiment on HCT-15 it was greater than 100 µM. Moreover, the GI50 in the experiment on KM12, in the experiment with Malme-3M, in the experiment with NCI-H23, in the experiment with NCI-H460, in the experiment on NCI-H522 and in the experiment with SK-MEL-2 was > 100 µM (inactive) each time. Also, the GI50 in the experiment on SK-MEL-5, with SK-OV-3, with TK-10 and with UACC-62 was > 100 µM (inactive) throughout.
With `Cc1ccc(NC(=O)C(=O)C2C(=O)N(c3ccccc3)N=C2N)cc1C` (stereo not given), the GI50 with A498, in the experiment with A549, in the experiment on ACHN, in the experiment on CCRF-CEM, in the experiment with COLO 205 and in the experiment on HCT-116 was > 100 µM (inactive) each time. In addition, the GI50 with HCT-15 is greater than 100 µM; with KM12, > 100 µM (inactive); with Malme-3M, > 100 µM (inactive); in the experiment with NCI-H23, > 100 µM (inactive); in the experiment with NCI-H522 it was > 100 µM (inactive); in the experiment on SK-MEL-5, > 100 µM (inactive). Besides, the GI50 in the experiment with SK-OV-3, in the experiment with TK-10 and in the experiment with UACC-62 was > 100 µM (inactive) in each case.
Take `CC[P+]1(c2ccccc2)CCCCC1`: the GI50 with A549 is > 100 µM (inactive); in the experiment on ACHN, > 100 µM (inactive); in the experiment on CCRF-CEM it was > 100 µM (inactive); with COLO 205 it was > 100 µM (inactive); with HCT-116, > 100 µM (inactive); in the experiment with HCT-15 it was greater than 100 µM. The GI50 in the experiment on KM12, with Malme-3M, with NCI-H23, in the experiment with NCI-H460, with SK-MEL-2 and with SK-MEL-5 was > 100 µM (inactive) each time. Also, the GI50 with SK-OV-3, in the experiment with TK-10 and in the experiment on UACC-62 was > 100 µM (inactive) each time.
For `COc1ccc(C2C3=C(COC3=O)Oc3cc4c(cc32)OCO4)cc1` (stereo not given), the GI50 was 9.18 µM (inactive) in the experiment with A549; 21.1 µM (inactive) with ACHN; 6.46 µM (inactive) in the experiment with CCRF-CEM; 13 µM (inactive) in the experiment with COLO 205; 13.2 µM (inactive) in the experiment with HCT-116; 6.27 µM with HCT-15. The GI50 in the experiment with Malme-3M was 56 µM (inactive); with NCI-H23, 20.1 µM (inactive); in the experiment on NCI-H460, 10.8 µM (inactive); with SK-MEL-2 it was 47.1 µM (inactive); in the experiment with SK-MEL-5 it was 11.7 µM (inactive); in the experiment with SK-OV-3, > 100 µM (inactive). The results for the GI50 in the experiment on TK-10 and in the experiment on UACC-62 were 29.3 µM (inactive) and 10.6 µM (inactive), respectively.
`CNC(=S)N/N=C1\CC(c2ccccc2)Oc2ccccc21` (stereo not given): the GI50 with A549, in the experiment on ACHN, in the experiment with CCRF-CEM, in the experiment with COLO 205, with HCT-116 and with KM12 was > 100 µM (inactive) in each case. Further, the GI50 in the experiment with Malme-3M is > 100 µM (inactive); in the experiment on NCI-H23, > 100 µM (inactive); with NCI-H460 it was > 100 µM (inactive); with NCI-H522, > 100 µM (inactive); in the experiment on SK-MEL-2 it was > 100 µM (inactive); with SK-MEL-5, 88.5 µM (inactive). The GI50 in the experiment with SK-OV-3, with TK-10 and with UACC-62 was > 100 µM (inactive) throughout.
Consider `COc1ccccc1/C=C\c1cc(OC)c(OC)c(OC)c1`, for which the GI50 was 7.64 µM (inactive) in the experiment on A498; 6.08 µM (inactive) in the experiment on A549; 33.8 µM (inactive) in the experiment on ACHN; 16.7 µM (inactive) with CCRF-CEM; 4.46 µM (inactive) with COLO 205; 9.23 µM (inactive) in the experiment with HCT-116. For the same compound, the GI50 in the experiment on HCT-15 is 4.2 µM; with KM12, 6.89 µM (inactive); in the experiment with Malme-3M, 16.5 µM (inactive); in the experiment with NCI-H460 it was 6.85 µM (inactive); in the experiment with NCI-H522 it was 6.14 µM (inactive); with SK-MEL-5, 4.33 µM (inactive). The results for the GI50 in the experiment with TK-10 and with UACC-62 were 43.6 µM (inactive) and 5.9 µM (inactive), respectively.
Turning to `CN(C)c1ccc(-c2cc(O)c3ccccc3n2)cc1`, the GI50 in the experiment with A549 is > 100 µM (inactive); with ACHN, > 100 µM (inactive); with CCRF-CEM it was > 100 µM (inactive); in the experiment on COLO 205 it was > 100 µM (inactive); in the experiment on HCT-116, > 100 µM (inactive); in the experiment on HCT-15, greater than 100 µM. For the same compound, the GI50 in the experiment on KM12, in the experiment with Malme-3M, in the experiment with NCI-H23, with NCI-H460, in the experiment on NCI-H522 and with TK-10 was > 100 µM (inactive) in each case.
